Test results: ChEMBL document CHEMBL1155741, “Ellagitannins and hexahydroxydiphenoyl esters as inhibitors of vertebrate squalene epoxidase” (J Nat Prod, 2001)

target: Squalene epoxidase (Sus scrofa, UniProt A7L861); experiment: Inhibition of pig squalene epoxidase
Sequence (A7L861 whole entry): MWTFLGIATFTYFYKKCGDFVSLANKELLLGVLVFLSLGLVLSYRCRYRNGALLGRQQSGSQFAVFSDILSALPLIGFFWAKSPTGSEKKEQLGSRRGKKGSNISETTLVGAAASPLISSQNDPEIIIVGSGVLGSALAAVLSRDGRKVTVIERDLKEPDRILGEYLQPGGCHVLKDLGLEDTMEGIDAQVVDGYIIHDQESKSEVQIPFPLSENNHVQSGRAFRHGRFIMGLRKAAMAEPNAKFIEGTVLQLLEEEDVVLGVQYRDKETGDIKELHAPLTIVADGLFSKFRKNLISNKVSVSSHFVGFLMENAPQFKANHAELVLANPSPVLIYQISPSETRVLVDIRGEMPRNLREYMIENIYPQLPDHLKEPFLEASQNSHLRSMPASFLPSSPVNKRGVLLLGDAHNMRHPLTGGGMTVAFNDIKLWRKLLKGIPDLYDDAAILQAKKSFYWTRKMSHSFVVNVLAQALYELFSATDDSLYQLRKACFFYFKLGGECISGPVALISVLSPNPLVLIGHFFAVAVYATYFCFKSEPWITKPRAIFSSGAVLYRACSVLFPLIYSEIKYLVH

| IC50 | Compound |
| --- | --- |
| 4 µM | CC(C)=CCC/C(C)=C/CC/C(C)=C/CC/C=C(\C)CC/C=C(\C)CCCO [TRISNORSQUALENE ALCOHOL] |
| 2 µM | CC(C)=CCC/C(C)=C/CC/C(C)=C/CC/C=C(\C)CC/C=C(\C)CCCNC1CC1 [TRISNORSQUALENE CYCLOPROPYLAMINE] |

target: T1, Squalene monooxygenase (Rattus norvegicus, UniProt P52020); experiment: Inhibition of C-terminal hexahistidine-tagged rat recombinant squalene epoxidase without N-terminal putative membrane domain expressed in Escherichia coli
T1 sequence (P52020 whole entry, the tested form may be a part): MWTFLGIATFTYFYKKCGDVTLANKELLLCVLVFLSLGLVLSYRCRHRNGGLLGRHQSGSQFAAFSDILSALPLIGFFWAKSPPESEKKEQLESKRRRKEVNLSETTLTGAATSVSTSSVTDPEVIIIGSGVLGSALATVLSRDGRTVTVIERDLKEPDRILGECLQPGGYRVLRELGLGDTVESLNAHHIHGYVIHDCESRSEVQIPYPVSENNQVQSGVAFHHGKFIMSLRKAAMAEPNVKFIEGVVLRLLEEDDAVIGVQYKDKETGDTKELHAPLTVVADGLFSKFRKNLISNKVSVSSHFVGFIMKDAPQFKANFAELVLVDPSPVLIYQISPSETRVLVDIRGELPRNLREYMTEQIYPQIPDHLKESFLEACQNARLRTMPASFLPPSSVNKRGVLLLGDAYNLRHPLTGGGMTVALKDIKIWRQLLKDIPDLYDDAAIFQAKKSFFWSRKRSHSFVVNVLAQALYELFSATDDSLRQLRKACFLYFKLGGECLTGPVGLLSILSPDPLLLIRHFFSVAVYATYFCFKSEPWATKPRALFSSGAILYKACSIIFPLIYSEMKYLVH

| Compound | IC50 |
| --- | --- |
| O=C(O[C@@H]1O[C@@H]2COC(=O)c3cc(O)c(O)c(O)c3-c3c(O)c(O)c(O)c(Oc4cc(C(=O)O[C@@H]5O[C@@H]6COC(=O)c7cc(O)c(O)c(O)c7-c7c(cc(O)c(O)c7O)C(=O)O[C@H]6[C@@H]6OC(=O)c7cc(O)c(O)c(O)c7-c7cc(O)c(O)c(O)c7C(=O)O[C@@H]56)cc(O)c4O)c3C(=O)O[C@H]2[C@@H]2OC(=O)c3cc(O)c(O)c(O)c3-c3c(cc(O)c(O)c3O)C(=O)O[C@@H]12)c1cc(O)c(O)c(O)c1 | 12 µM |
| COC(=O)c1cc(O)c(O)c(O)c1-c1c(C(=O)OC)cc(O)c(O)c1O | 16.4 µM |
| CCCCCCCCCCCCCCCCCCOC(=O)c1cc(O)c(O)c(O)c1-c1c(C(=O)OCCCCCCCCCCCCCCCCCC)cc(O)c(O)c1O | 47 µM |
| O=C1O[C@H]2[C@H](O)[C@@H](CO)OC(O)[C@@H]2OC(=O)c2cc(O)c(O)c(O)c2-c2c1cc(O)c(O)c2O (some centres undefined) | 32 µM |
| CCOC(=O)c1cc(O)c(O)c(O)c1-c1c(C(=O)OCC)cc(O)c(O)c1O | 13.3 µM |
| O=C1OC[C@H]2OC(=O)c3cc(O)c(O)c(O)c3-c3c(O)c(O)c(O)c4c3C(=O)O[C@H]([C@H]3OC(=O)c5c-4c(O)c(O)c(O)c5[C@H]3O)[C@@H]2OC(=O)c2cc(O)c(O)c(O)c2-c2c1cc(O)c(O)c2O [CASTALAGIN] | 30 µM |
| O=C(O[C@@H]1COC(=O)c2cc(O)c(O)c(O)c2-c2c(cc(O)c(O)c2O)C(=O)O[C@H]1[C@@H]1OC(=O)c2cc(O)c(O)c(O)c2-c2c(O)c(O)c(O)c3c2C(=O)O[C@H]1[C@@H]3O)c1cc(O)c(O)c(O)c1 [CASUARININ] | 34 µM |
| O=C(O)C[C@H]1C(=O)O[C@H]2[C@H](OC(=O)c3cc(O)c(O)c(O)c3)[C@@H](OC(=O)c3cc(O)c(O)c4c3[C@H]1[C@H](O)C(=O)O4)[C@H](OC(=O)c1cc(O)c(O)c(O)c1)O[C@@H]2COC(=O)c1cc(O)c(O)c(O)c1 [CHEBULINIC ACID] | 12 µM |
| O=C1O[C@H]2[C@H](O)[C@@H](OC(=O)c3cc(O)c(O)c4c3[C@@H]3C1=CC(=O)C(O)(O)C3(O)O4)[C@H](OC(=O)c1cc(O)c(O)c(O)c1)O[C@@H]2CO (some centres undefined) [FUROSIN] | 10 µM |
| O=C(O)c1cc(O)c(O)c(O)c1 [GALLIC ACID] | 73 µM |
| O=C(O[C@@H]1O[C@@H]2COC(=O)c3cc(O)c(O)c(O)c3-c3c(cc(Oc4c(C(=O)O)cc(O)c(O)c4O)c(O)c3O)C(=O)O[C@H]([C@H]1O)[C@@H]2O)c1cc(O)c(O)c(O)c1 [MALLOTINIC ACID] | 8 µM |
| O=C1O[C@H]2[C@@H]3OC(=O)c4cc(Oc5c(C(=O)O)cc(O)c(O)c5O)c(O)c(O)c4-c4c(cc(O)c(O)c4O)C(=O)OC[C@H]2O[C@@H](OC(=O)c2cc(O)c(O)c(O)c2)[C@@H]3OC(=O)c2cc(O)c(O)c3c2[C@@H]2C1=CC(=O)[C@](O)(O3)C2(O)O [MALLOTUSINIC ACID] | 8 µM |
| CCCCCCCCOC(=O)c1cc(O)c(O)c(O)c1 [OCTYL_GALLATE] | 0.83 µM |
| O=C(OC[C@H]1O[C@@H](OC(=O)c2cc(O)c(O)c(O)c2)[C@H](OC(=O)c2cc(O)c(O)c(O)c2)[C@@H](OC(=O)c2cc(O)c(O)c(O)c2)[C@@H]1OC(=O)c1cc(O)c(O)c(O)c1)c1cc(O)c(O)c(O)c1 [PENTAGALLOYL GLUCOSE] | 0.47 µM |
| O=C(OC[C@H]1O[C@@H](OC(=O)c2cc(O)c(O)c(O)c2)[C@H](OC(=O)c2cc(O)c(O)c(O)c2)[C@@H](OC(=O)c2cc(O)c(O)c(O)c2)[C@@H]1OC(=O)c1cc(O)c(O)c(O)c1Oc1cc2c(c(O)c1O)-c1c(cc(O)c(O)c1O)C(=O)O[C@H]1[C@H](OC(=O)c3cc(O)c(O)c(O)c3)[C@@H](OC(=O)c3cc(O)c(O)c(O)c3)[C@H](OC(=O)c3cc(O)c(O)c(O)c3)O[C@@H]1COC2=O)c1cc(O)c(O)c(O)c1 [PHYLLYRAEOIDIN] | 100 µM |
| O=C1O[C@@H]2[C@@H](OC(=O)c3cc(O)c(O)c(O)c3-c3c1cc(O)c(O)c3O)[C@H](O)O[C@@H]1COC(=O)c3cc(O)c(O)c(O)c3-c3c(O)c(O)c4oc(=O)c5c(c(O)c(O)c6oc(=O)c3c4c65)-c3c(cc(O)c(O)c3O)C(=O)O[C@@H]21 [PUNICALAGIN] | 40 µM |
| O=C1OC[C@H]2O[C@@H](O)[C@H](O)[C@@H](O)[C@@H]2OC(=O)c2cc(O)c(O)c(O)c2-c2c(O)c(O)c3oc(=O)c4c(c(O)c(O)c5oc(=O)c2c3c54)-c2c1cc(O)c(O)c2O [PUNICALIN] | 20 µM |

Results, then the compound that gave them:

| IC50 | Compound |
| --- | --- |
| 2.5 µM | CCCCCCCCCCCCCCCCOC(=O)c1cc(O)c(O)c(O)c1-c1c(C(=O)OCCCCCCCCCCCCCCCC)cc(O)c(O)c1O |
| 1.5 µM | CCCCCCCCCCCCCCOC(=O)c1cc(O)c(O)c(O)c1-c1c(C(=O)OCCCCCCCCCCCCCC)cc(O)c(O)c1O |
| 7 µM | O=C(O[C@@H]1O[C@@H]2COC(=O)c3cc(O)c(O)c(O)c3-c3c(cc(O)c(O)c3O)C(=O)O[C@H]2[C@@H]2OC(=O)c3cc(O)c(O)c(O)c3-c3c(cc(O)c(O)c3O)C(=O)O[C@@H]12)c1cc(O)c(O)c(O)c1 |
| 1.3 µM | CCCCCCCCCCCCOC(=O)c1cc(O)c(O)c(O)c1-c1c(C(=O)OCCCCCCCCCCCC)cc(O)c(O)c1O |
| 1.1 µM | CCCCCCCCCCOC(=O)c1cc(O)c(O)c(O)c1-c1c(C(=O)OCCCCCCCCCC)cc(O)c(O)c1O |
| 7.9 µM | CCCCOC(=O)c1cc(O)c(O)c(O)c1-c1c(C(=O)OCCCC)cc(O)c(O)c1O |
| 0.93 µM | CCCCCCOC(=O)c1cc(O)c(O)c(O)c1-c1c(C(=O)OCCCCCC)cc(O)c(O)c1O |
| 0.83 µM | CCCCCCCCOC(=O)c1cc(O)c(O)c(O)c1-c1c(C(=O)OCCCCCCCC)cc(O)c(O)c1O |
| 3.2 µM | O=C(O)C[C@@H]1C(=O)O[C@H]2[C@@H]3OC(=O)c4cc(O)c(O)c(O)c4-c4c(cc(O)c(O)c4O)C(=O)OC[C@H]2O[C@@H](OC(=O)c2cc(O)c(O)c(O)c2)[C@@H]3OC(=O)c2cc(O)c(O)c3c2[C@H]1[C@H](O)C(=O)O3 [CHEBULAGIC ACID] |
| 4 µM | O=C(O[C@@H]1O[C@@H]2COC(=O)c3cc(O)c(O)c(O)c3-c3c(cc(O)c(O)c3O)C(=O)O[C@H]([C@H]1O)[C@@H]2O)c1cc(O)c(O)c(O)c1 [CORILAGIN] |
| 2 µM | O=c1oc2c(O)c(O)cc3c(=O)oc4c(O)c(O)cc1c4c23 [ELLAGIC ACID] |
| 4.2 µM | CCOC(=O)c1cc(O)c(O)c(O)c1 [ETHYLGALLATE] |
| 1.6 µM | O=C(O[C@@H]1O[C@@H]2COC(=O)c3cc(O)c(O)c(O)c3-c3c(cc(O)c(O)c3O)C(=O)O[C@H]2[C@H](OC(=O)c2cc(O)c(O)c(O)c2)[C@H]1OC(=O)c1cc(O)c(O)c(O)c1)c1cc(O)c(O)c(O)c1 [EUGENIIN] |
| 4.1 µM | O=C1O[C@H]2[C@@H]3OC(=O)c4cc(O)c(O)c(O)c4-c4c(cc(O)c(O)c4O)C(=O)OC[C@H]2O[C@@H](OC(=O)c2cc(O)c(O)c(O)c2)[C@@H]3OC(=O)c2cc(O)c(O)c3c2[C@@H]2C1=CC(=O)[C@](O)(O3)C2(O)O [GERANIIN] |
| 0.59 µM | CCCCCCCCCCCCCCCCOC(=O)c1cc(O)c(O)c(O)c1 [HEXADECYL GALLATE] |
| 2 µM | O=C1OC[C@H]2OC(O)[C@@H]3OC(=O)c4cc(O)c(O)c(O)c4-c4c(cc(O)c(O)c4O)C(=O)O[C@H]3[C@@H]2OC(=O)c2cc(O)c(O)c(O)c2-c2c1cc(O)c(O)c2O (some centres undefined) [PEDUNCULAGIN] |

target: T1, Squalene monooxygenase; experiment: Inhibition of rat squalene epoxidase

| IC50 | Compound |
| --- | --- |
| 0.54 µM | O=C(O[C@@H]1[C@@H](c2c(O)cc(O)c3c2O[C@H](c2ccc(O)c(O)c2)[C@H](OC(=O)c2cc(O)c(O)c(O)c2)C3)c2c(O)cc(O)cc2O[C@@H]1c1ccc(O)c(O)c1)c1cc(O)c(O)c(O)c1 |
| 0.63 µM | O=C(OC[C@H]1O[C@@H](OC(=O)c2cc(O)c(O)c(O)c2)[C@H](OC(=O)c2cc(O)c(O)c(O)c2)[C@@H](O)[C@@H]1O)c1cc(O)c(O)c(O)c1 |
| 0.13 µM | O=C(O[C@@H]1Cc2c(O)cc(O)cc2O[C@@H]1c1cc(O)c(O)c(O)c1-c1c([C@H]2Oc3cc(O)cc(O)c3C[C@H]2OC(=O)c2cc(O)c(O)c(O)c2)cc(O)c(O)c1O)c1cc(O)c(O)c(O)c1 [THEASINENSIN A] |
| 5.4 µM | CC(C)=CCC/C(C)=C/CC/C(C)=C/CC/C=C(\C)CC/C=C(\C)CCC=C(F)F [TRISNORSQUALENE DIFLUOROMETHYLIDENE] |
